In patent US20110008447A1, “CARRIER COMPRISING NANODIAMOND” (NATIONAL CHIAO TUNG UNIVERSITY, priority 2009, published 2011):

Key:
A549 cells [1] = assay: flow cytometer cell cycle analysis; type: cell-based, human; settings: in comparison with non-treated samples, p<0.01
A549 cells [2] = assay: cytoskeleton and nuclei staining, confocal microscope; type: cell-based, human; settings: 24 hours, taxol 50 nM

## CC(=O)O[C@H]1C(=O)[C@@]2(C)[C@H]([C@H](OC(=O)c3ccccc3)[C@]3(O)C[C@H](OC(=O)[C@H](O)[C@@H](NC(=O)c4ccccc4)c4ccccc4)C(C)=C1C3(C)C)[C@]1(OC(C)=O)CO[C@@H]1C[C@@H]2O [taxol]
A549 cells [1]
  G1/G0 cell population: significantly reduced
A549 cells [2]; carrier 100 μg/mL
  mitosis of the cells: significantly enhancing mitosis
A549 cells [2]; carrier or ND 100 μg/mL
  effect on microtubules, spindle and chromosomes: induced polymerization of microtubules, inhibited formation of spindle, and inhibited separation of chromosomes
